In publication PMC11173508, “Pharmacokinetics and Tissue Distribution of Itampolin A following Intragastric and Intravenous Administration in Rats Using Ultra-High-Performance Liquid Chromatography–Tandem Mass Spectrometry” (Molecules, 2024):
Like-named read-outs stand apart in the source and are kept apart here.

Columns and labels:
[1] = Pharmacokinetic study in rats after intragastric and intravenous administration (UHPLC-MS/MS of plasma); format: in vivo, Sprague–Dawley rats; details: for MRT inf: n = 6, read-out: MRT0–∞; for k el: n = 6, read-out: ke (converted); for bioavailability: F = Doseiv × AUCig/(Doseig × AUCiv) × 100%, read-out: absolute bioavailability (F)
Method: Sprague–Dawley rats (250 ± 20 g) were supplied from the Experimental Animal Centre of China Medical University (Shenyang, China) and housed under unified conditions. All of the animal experiments were conducted in compliance with the Guidelines for Care and Use of Laboratory Animals of China Medical University and the protocols were approved by the Animal Ethics Committee of the institution (code number: CMU2023205). The rats were raised in a standard environment with a temperature of 24 ± 2 °C, relative humidity of 55 ± 10%, and 12 h light/12 h dark cycles. These rats were acclimatized to the environment for at least one week before the experiment, provided free access to drinking water, and fed during this period. Twenty-four SD rats, which were divided into four groups (six rats per group), received 5 mg/kg itampolin A by intravenous administration or 10, 25, and 50 mg/kg itampolin A by intragastric administration for the pharmacokinetics experiments. Twenty SD rats (five rats for each time point) received 25 mg/kg itampolin A by intragastric administration for the tissue distribution study.
The simple protein precipitation extraction technique using methanol as the precipitating solvent was applied to extract itampolin A and IS from biological samples [23, 24]. The 100 µL of plasma sample, 50 µL of IS working solution, and 200 µL of methanol were added in 500 µL microcentrifuge tubes to precipitate proteins. After vortexing for 1 min, the samples were centrifuged at 12,000 rpm for 10 min to remove the denatured protein. Subsequently, the supernatant was transferred into another tube and evaporated to dryness with a stream of nitrogen at 35 °C. The remains were reconstituted in 100 µL of initial mobile phase, briefly vortexed, and centrifuged at 12,000 rpm for 10 min. Then, 10 µL of the supernatant was transferred to sampling vials for the UHPLC-MS/MS system.
For both intragastric and intravenous administration, itampolin A was dissolved in polyethylene glycol (PEG)-saline (1:3, PEG: 380–420) for the preparation of dosing solutions. Eighteen Sprague–Dawley rats were divided into three groups randomly (six rats each). The rats of each group were weighed, and then given a single dose of 10 mg/kg, 25 mg/kg, and 50 mg/kg itampolin A via intragastric administration, respectively. Blood samples (200 µL) were obtained from orbital vein into heparinized centrifuge tubes at 0.083, 0.25, 0.5, 0.75, 1, 1.5, 2, 3, 4, 6, 8, 12, and 24 h after drug administration.
Six Sprague–Dawley rats were weighed, and then given a single dose of 5 mg/kg of itampolin A via intravenous administration. Blood samples (200 µL) were obtained from orbital vein into heparinized centrifuge tubes at 0.033, 0.083, 0.167, 0.25, 0.5, 0.75, 1, 1.5, 2, 3, 4, 8, and 12 h after drug administration. The blood samples obtained from both intragastric and intravenous administration were immediately separated by centrifugation at 12,000 rpm for 10 min, and then the supernatant plasma was gathered and stored at −20 °C prior to analysis.
The pharmacokinetic parameters were calculated by non-compartmental model using the DAS 3.2.8 software. All data were presented as mean ± SD.

[2] = Solubility in normal saline; format: physicochemical
[3] = system: non-small-cell lung cancer; parameters: method as in doi:10.2174/1570179414666170215092631; details: cited from earlier work
[4] = system: p38α; parameters: method as in PMID 30642059; details: binding to the DFG-out conformation of p38α; cited from earlier work
[5] = Sprague-Dawley, rat, iv, i.v. 5 mg/kg, plasma, mean ± SD, n = 6
[6] = Sprague-Dawley, rat, iv, i.v. 5 mg/kg, plasma, mean ± SD
[7] = Sprague-Dawley, rat, plasma, iv, 5 mg/kg, i.v. 5 mg/kg, mean ± SD, n = 6
[8] = Sprague-Dawley, rat, plasma, po, 10 mg/kg, i.g. low dose 10 mg/kg, mean ± SD, n = 6
[9] = Sprague-Dawley, rat, plasma, po, 25 mg/kg, i.g. mid dose 25 mg/kg, mean ± SD, n = 6
[10] = Sprague-Dawley, rat, plasma, po, 50 mg/kg, i.g. high dose 50 mg/kg, mean ± SD, n = 6
[11] = Sprague-Dawley, rat, po, i.g. high dose 50 mg/kg, plasma, mean ± SD, n = 6
[12] = Sprague-Dawley, rat, po, i.g. high dose 50 mg/kg, plasma, mean ± SD
[13] = Sprague-Dawley, rat, po, i.g. low dose 10 mg/kg, plasma, mean ± SD, n = 6
[14] = Sprague-Dawley, rat, po, i.g. low dose 10 mg/kg, plasma, mean ± SD
[15] = Sprague-Dawley, rat, po, i.g. mid dose 25 mg/kg, plasma, mean ± SD, n = 6
[16] = Sprague-Dawley, rat, po, i.g. mid dose 25 mg/kg, plasma, mean ± SD
[17] = i.g. high dose 50 mg/kg, plasma, mean ± SD, n = 6
[18] = i.g. low dose 10 mg/kg, plasma, mean ± SD, n = 6
[19] = i.g. mid dose 25 mg/kg, plasma, mean ± SD, n = 6
[20] = intragastric 10, 25 and 50 mg/kg

## COc1c(Br)cc(C[C@H](NC(=O)Cc2ccc(OCCCNC(C)=O)cc2)C(=O)NCCc2cc(Br)c(O)c(Br)c2)cc1Br [itampolin A, Itampolin A]
[1]; [5]
  AUC(0-inf): 2830 ± 110 ng·h/mL
  AUC(0-t): 978 ± 26.2 ng·h/mL
  Cmax: 1340 ± 52.2 ng/mL
  clearance: 30 mL/min/kg
[1]; [6]
  MRT inf: 4.8 ± 0.3 h
  k el: 7.5e-05 s⁻¹
[1]; Sprague-Dawley, rat, iv, i.v. 5 mg/kg, plasma, mean ± SD, n = 6, read-out: Vd
  Vd: 6.6 ± 0.4 L/kg
[1]; [7]
  Tmax: 0.03 h
  half-life: 2.6 ± 0.2 h
[1]; Sprague-Dawley, rat, plasma, oral dose 10 mg/kg vs i.v. 5 mg/kg
  bioavailability: 18.8%
[1]; Sprague-Dawley, rat, plasma, oral dose 25 mg/kg vs i.v. 5 mg/kg
  bioavailability: 13.7%
[1]; Sprague-Dawley, rat, plasma, oral dose 50 mg/kg vs i.v. 5 mg/kg
  bioavailability: 11.2%
[1]; [8]
  Tmax: 1.7 ± 0.2 h
  half-life: 2.6 ± 0.3 h
[1]; [9]
  Tmax: 1.7 ± 0.2 h
  half-life: 2.3 ± 0.2 h
[1]; [10]
  Tmax: 0.9 ± 0.1 h
  half-life: 2.1 ± 0.2 h
[1]; Sprague-Dawley, rat, plasma, po, 50 mg/kg, intragastric 10, 25 and 50 mg/kg, range over the three doses
  half-life: 2.1 to 2.6 h
[1]; Sprague-Dawley, rat, plasma, po, 50 mg/kg, intragastric 10, 25 and 50 mg/kg, summary over the three doses
  Tmax: < 1.7 h
[1]; [11]
  AUC(0-inf): 3190 ± 94.7 ng·h/mL
  AUC(0-t): 2640 ± 44.6 ng·h/mL
  Cmax: 807 ± 36.9 ng/mL
[1]; [12]
  MRT inf: 3.7 ± 0.2 h
  k el: 9.17e-05 s⁻¹
[1]; [13]
  AUC(0-inf): 1080 ± 55.8 ng·h/mL
  AUC(0-t): 939 ± 34.9 ng·h/mL
  Cmax: 283 ± 20 ng/mL
[1]; [14]
  MRT inf: 4.6 ± 0.5 h
  k el: 7.5e-05 s⁻¹
[1]; [15]
  AUC(0-inf): 1940 ± 116 ng·h/mL
  AUC(0-t): 1540 ± 44.9 ng·h/mL
  Cmax: 412 ± 13.7 ng/mL
[1]; [16]
  MRT inf: 4.2 ± 0.3 h
  k el: 8.33e-05 s⁻¹
[1]; [17]
  CL: 207 ± 6.7 mL/min/kg
  Vd: 44.6 ± 2.8 L/kg
[1]; [18]
  CL: 185 ± 8.3 mL/min/kg
  Vd: 42.2 ± 2.9 L/kg
[1]; [19]
  CL: 215 ± 13 mL/min/kg
  Vd: 43.9 ± 1.7 L/kg
[1]; [20]
  correlation coefficient of AUC0–t versus dose (dose linearity): 0.999
  correlation coefficient of AUC0–∞ versus dose (dose linearity): 0.998
  correlation coefficient of Cmax versus dose (dose linearity): 0.981
[2]
  solubility in normal saline: small
[3]
  anticancer activity against non-small-cell lung cancer: significant anticancer activity
[4]
  phospho-p38α expression: decreasing the phospho-p38α expression
